Experiment [1] relates to IκBα. The experiment in a line: TNFα-induced IκBα phosphorylation in cells. To be noted: 1 minute stimulation. It counts as cell-based.
Experiment [2] has as its system MEFs from p53-deficient mice. The experiment in a line: Killing of MEFs from p53-deficient mice. Format: cell-based, mouse. The text has this: (§1) While p53 induces apoptotic cell death in many tumor cells, it generally only induces growth arrest in untransformed cells. This has been the rationale for many studies targeting the p53 system.
In experiment [3] the test system is p53. Put plainly: p53-driven luciferase reporter assay. Format: cell-based. The text has this:
FIG. 5B depicts the results of reporter assays showing that the p53 induced by 4-[4-(5-nitro-furan-2-ylmethylene)-3,5-dioxo-pyrazolidin-1-yl]-benzoic acid methyl acid is transcriptionally active.
A general note: Reporter assays use an easily measured gene product as a stand-in for the process of interest.

Experiment [4] relates to TRAF6. Put plainly: TNFα-induced TRAF6 ubiquitination, immunoprecipitation and immunoblotting. Format: cell-based. Particulars: T cell leukemia Jurkat. An excerpt: To determine whether 4-[4-(5-nitro-furan-2-ylmethylene)-3,5-dioxo-pyrazolidin-1-yl]-benzoic acid methyl acid blocks ubiquitination of TRAF6 in response to TNFα, TRAF6 was immunoprecipitated from the T cell leukemia Jurkat after TNFα treatment, followed by immunoblotting (FIG. 4C).
(A western blot detects proteins with antibodies after separation by electrophoresis.)

Experiment [5] deals with T1, His6-E1 (Homo sapiens, UniProt P22314).
T1 sequence (P22314 1-1058): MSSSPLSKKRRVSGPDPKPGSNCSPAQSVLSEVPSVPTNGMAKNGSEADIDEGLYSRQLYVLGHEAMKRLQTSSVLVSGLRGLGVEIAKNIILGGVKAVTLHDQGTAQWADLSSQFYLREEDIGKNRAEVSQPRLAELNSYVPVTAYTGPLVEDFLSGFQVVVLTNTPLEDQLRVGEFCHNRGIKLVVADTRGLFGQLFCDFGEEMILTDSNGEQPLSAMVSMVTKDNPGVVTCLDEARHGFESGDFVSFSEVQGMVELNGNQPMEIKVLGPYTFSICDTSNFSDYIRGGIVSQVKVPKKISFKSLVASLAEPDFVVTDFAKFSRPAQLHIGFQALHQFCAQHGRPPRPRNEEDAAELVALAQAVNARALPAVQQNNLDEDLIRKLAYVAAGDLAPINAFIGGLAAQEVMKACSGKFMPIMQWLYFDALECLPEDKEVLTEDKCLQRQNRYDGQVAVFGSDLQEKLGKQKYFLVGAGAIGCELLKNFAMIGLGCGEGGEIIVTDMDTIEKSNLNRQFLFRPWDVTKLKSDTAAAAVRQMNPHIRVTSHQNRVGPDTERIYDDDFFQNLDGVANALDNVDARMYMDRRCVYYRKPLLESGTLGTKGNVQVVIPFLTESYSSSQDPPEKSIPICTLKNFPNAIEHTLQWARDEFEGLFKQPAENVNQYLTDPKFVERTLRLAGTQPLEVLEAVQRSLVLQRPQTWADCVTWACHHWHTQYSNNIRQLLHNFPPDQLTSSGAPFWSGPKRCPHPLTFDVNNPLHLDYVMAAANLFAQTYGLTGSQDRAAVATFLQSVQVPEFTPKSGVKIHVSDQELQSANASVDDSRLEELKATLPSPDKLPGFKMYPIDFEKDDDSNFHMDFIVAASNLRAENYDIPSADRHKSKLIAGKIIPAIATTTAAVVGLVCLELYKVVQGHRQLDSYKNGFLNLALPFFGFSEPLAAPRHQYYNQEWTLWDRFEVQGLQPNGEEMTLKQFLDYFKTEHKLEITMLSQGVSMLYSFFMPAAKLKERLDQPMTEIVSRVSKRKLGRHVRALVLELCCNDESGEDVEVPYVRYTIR
The experiment in a line: Bead immobilized His6-E1: wash-out and glutathione competition. It counts as biochemical. The procedure: Bead immobilized His6-E1 was treated with E1 inhibitor 4-[4-(5-nitro-furan-2-ylmethylene)-3,5-dioxo-pyrazolidin-1-yl]-benzoic acid methyl acid (E1 41) at a range of concentrations (0-50 μm) as indicated in FIG. 9A. The beads were subjected to wash (+wash) or no wash (−wash) conditions.
The ability of a compound to inhibit E1 activity may come from the ability of the compound to interfere with the formation of thiolester linkages between ubiquitin and E1. Next, the biological activity of E1 41 was tested to examine if it can be inhibited or prevented by treatment with an excess of reduced glutathione. […] Thus, E1 41 can act as a target for nucleophilic attack by active site thiol of E1 (e.g., a central double bond of a compound can serve as Michael-acceptor for the nucleophilic thiol in a Michael-type reaction).

In experiment [6] the test system is J588 mouse myeloma cells. Put plainly: Killing of myeloma cells. It counts as cell-based.
Text: FIG. 6B depicts the dose-depending killing of J588 mouse myeloma cells by proteasome and E1 inhibitor by 4-[4-(5-nitro-furan-2-ylmethylene)-3,5-dioxo-pyrazolidin-1-yl]-benzoic acid methyl acid.
as §1

Turning to `COC(=O)c1ccc(N2NC(=O)/C(=C/c3ccc([N+](=O)[O-])o3)C2=O)cc1` [E1-41, 4-[4-(5-nitro-furan-2-ylmethylene)-3,5-dioxo-pyrazolidin-1-yl]-benzoic acid methyl acid], the “IκBα phosphorylation following TNFα treatment” value in experiment [1] is recorded as “blocks IκBα phosphorylation”. For the same molecule, the “killing of MEFs from p53-deficient mice” value in experiment [2] was “relatively resistant”. Besides, the “activation of p53-driven luciferase reporter” value in experiment [3] is reported as “activated a p53-driven luciferase reporter to a level comparable to adriamycin”. Besides, the “TNFα-induced ubiquitination of TRAF6” value in experiment [4] is on record as “effectively inhibited”. Also, the “removal of compound from E1 by washing” value in experiment [5] (0-50 μm, wash versus no wash) was “cannot be washed away”. In addition, the “effect of reduced glutathione on the inhibitory action on E1” value in experiment [5] (50 μM compound, GSH 0.1-10 mM) is given as “can be prevented by the addition of reduced glutathione (GSH) in a dose-dependent manner”. Also, in experiment [6], the “killing of myeloma cells” value is “kills myeloma cells in a dose-dependent manner”.
